The values that follow come from patent publication US20260364080A1, “PYRAZOLO-PYRIMIDINONE COMPOUNDS FOR USE IN METHODS OF INHIBITING WEE1 A KINASE” (Acrivon Therapeutics, Inc., priority 2023, published 2026).

Like-named read-outs stand apart in the source and are kept apart here.

Test [1] concerns the target T1, Wee1A kinase (CDK1 Tyr15 phosphorylation in ACHN renal cell carcinoma cells) (Homo sapiens, UniProt P30291).
T1 construct: pCDK1 Tyr15 immunofluorescence read-out
Put plainly: High-content imaging of pCdk1 Y15, Wee1A kinase target engagement in ACHN cells. Type of test: cell-based. The gist of the method: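 ACHN cells exposed to compound for 4 h over 7–5,000 nM or 0.3–200 nM, then fixed and immunostained for pCDK1 Y15 with DAPI nuclear counterstain. The percentage of pCdk1 Y15 nucleus-positive cells relative to DMSO control was imaged per well; EC50 from dose-response curves.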

Another test relates to ACHN cells. Put plainly: Cell Titer Glo viability assay, ACHN cells. Type of test: cell-based. The settings on record: Homo sapiens, 144 h, absolute EC50. The method in brief:
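Cells grown in MEM with 10% FCS were seeded at 500 (A427), 400 (ACHN) or 250 (DAOY) per well and treated the next day with compound at 17 to 10 000 nM. Viability relative to untreated control was read at 144 h by CellTiter-Glo 2.0.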
Background: ATP-based viability assays read luminescence as a measure of living cells.

Test [2] addresses T2, Myt1 kinase (CDK1 Thr14 phosphorylation in DAOY medulloblastoma cells) (Homo sapiens, UniProt Q99640).
T2 construct: pCDK1 Thr14 AlphaLISA read-out
T2 sequence (Q99640 1-499): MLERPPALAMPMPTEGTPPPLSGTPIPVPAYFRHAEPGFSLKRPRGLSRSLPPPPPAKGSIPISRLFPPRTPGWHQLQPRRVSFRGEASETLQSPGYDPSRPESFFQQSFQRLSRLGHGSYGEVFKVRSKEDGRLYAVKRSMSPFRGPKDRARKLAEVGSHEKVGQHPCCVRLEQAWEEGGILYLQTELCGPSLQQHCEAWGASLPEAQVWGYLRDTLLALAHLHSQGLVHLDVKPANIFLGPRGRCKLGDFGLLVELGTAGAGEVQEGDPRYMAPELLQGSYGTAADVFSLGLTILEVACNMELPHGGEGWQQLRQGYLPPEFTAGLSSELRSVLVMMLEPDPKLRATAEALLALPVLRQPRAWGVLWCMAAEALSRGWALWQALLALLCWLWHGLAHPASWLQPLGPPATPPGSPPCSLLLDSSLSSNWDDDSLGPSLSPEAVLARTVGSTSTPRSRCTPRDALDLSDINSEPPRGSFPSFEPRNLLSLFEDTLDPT
As to the kind of experiment: AlphaLISA assay, Myt1 kinase target engagement (phospho-CDK1 Thr14) in DAOY cells. It counts as cell-based. On the procedure: Each of an ACHN renal cell carcinoma cell line (ATCC) and a DAOY medulloblastoma cell line, and an A427 lung cancer line were cultured in Minimum Essential Medium Eagle supplemented with 10% fetal calf serum (Sigma), 1% Penicillin-Streptomycin and 10 mM HEPES buffer (HyClone). Cell cultures were kept in a humidified incubator at 37 °C and 5% CO2. Cells were routinely tested for Mycoplasma contamination.
For target engagement assessment of Myt1 kinase inhibition, quantification of Cdk1 phosphorylated on threonine 14 was detected using the AlphaLISA® SureFire® Ultra™ Human Phospho-CDK1 (Thr14) assay (Perkin Elmer). DAOY or ACHN cells were seeded into tissue culture treated 96-well plates (VWR) to a density of 10,000 or 20,000 cells per well respectively. 24 h post seeding cells were treated for 4 h with compounds at concentrations ranging from 7 to 5000 nM. Cells were washed with PBS and lysed in 50 μl AlphaLISA lysis buffer before freezing at −80 C. Ten ul of the lysate was transferred to 384 well plates and incubated with AlphaLISA donor and acceptor beads according to the manufacturer's instructions. Dose response curves and EC50 values were calculated and visualized using GraphPad Prism version 9. Target engagement for Myt1 kinase can also be measured using the same AlphaLISA assay in OVCAR3 cells, an ovarian cancer cell line. NIH:OVCAR-3 (OVCAR3) cells are cultured in RPMI-1640 medium supplemented with 0.01 mg/ml insulin, 20% FBS, 1% Penicillin-Streptomycin and 10 mM HEPES buffer. 14,000 cells per well are seeded into 96 well tissue culture plates in full medium. Twenty-four hours post seeding, cells are treated with compound for 4 hours at concentrations ranging from 0.017 nM to 1000 nM.

The target of test [3] is T3, recombinant human Wee1A kinase (Homo sapiens, UniProt P30291).
T3 construct: full length Wee1 kinase was expressed by baculovirus in insect cells; purchased Invitrogen PV3817; host or cells: insect cells (baculovirus)
Put plainly: Wee1A kinase binding assay (LanthaScreen Eu time-resolved FRET). The method in brief:
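Full-length, baculovirus-expressed GST-tagged Wee1A (5 nM) was mixed with 2 nM Eu-anti-GST antibody, 30 nM kinase tracer 178 and compound (1% DMSO). Buffer was 50 mM HEPES pH 7.5, 10 mM MgCl2, 1 mM EGTA, 0.01% Brij-35, incubated 60 min at room temperature. TR-FRET 665/615 nm emission ratios from duplicates were curve-fitted.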
In general terms: In TR-FRET formats the signal depends on donor and acceptor labels being close together.

The target in test [4] is T4, Myt1 kinase (recombinant PMYT-1) (Homo sapiens, UniProt Q99640).
T4 construct: full length PMYT-1 was expressed by baculovirus in insect cells; purchased Invitrogen A30984; host or cells: insect cells (baculovirus)
T4 sequence (Q99640 1-499): T2 sequence (Q99640 1-499)
As to the kind of experiment: Myt1 kinase binding assay (LanthaScreen Eu Kinase Binding Assay). The gist of the method: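 The binding affinity of compounds for Myt1 kinase was measured with a LanthaScreen Europium (Eu) Kinase Binding Assay, a time-resolved FRET format in which test compounds compete against a labeled kinase tracer, and the results were expressed as IC50 values describing compound binding to Myt1.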

[5] abbreviates: 4 h treatment, nuclear positivity for pCdk1 Y15 vs DMSO control, read-out: CDK1 Tyr15 Phosphorylation EC50.
[6] abbreviates: 4 h treatment, read-out: CDK1 Thr14 Phosphorylation EC50.
The mark [7] stands for this setting: 30 nM tracer 178, 5 nM Wee1A kinase, 2 nM Eu-labeled antibody, 60 minutes at room temperature, read-out: Wee1A kinase Binding IC50.
Where [8] appears, read: 3 nM tracer 178, 2.5 nM PMYT-1, 1 nM Eu-labeled antibody, read-out: Myt1 kinase Binding IC50.

T3 sequence (P30291 whole entry): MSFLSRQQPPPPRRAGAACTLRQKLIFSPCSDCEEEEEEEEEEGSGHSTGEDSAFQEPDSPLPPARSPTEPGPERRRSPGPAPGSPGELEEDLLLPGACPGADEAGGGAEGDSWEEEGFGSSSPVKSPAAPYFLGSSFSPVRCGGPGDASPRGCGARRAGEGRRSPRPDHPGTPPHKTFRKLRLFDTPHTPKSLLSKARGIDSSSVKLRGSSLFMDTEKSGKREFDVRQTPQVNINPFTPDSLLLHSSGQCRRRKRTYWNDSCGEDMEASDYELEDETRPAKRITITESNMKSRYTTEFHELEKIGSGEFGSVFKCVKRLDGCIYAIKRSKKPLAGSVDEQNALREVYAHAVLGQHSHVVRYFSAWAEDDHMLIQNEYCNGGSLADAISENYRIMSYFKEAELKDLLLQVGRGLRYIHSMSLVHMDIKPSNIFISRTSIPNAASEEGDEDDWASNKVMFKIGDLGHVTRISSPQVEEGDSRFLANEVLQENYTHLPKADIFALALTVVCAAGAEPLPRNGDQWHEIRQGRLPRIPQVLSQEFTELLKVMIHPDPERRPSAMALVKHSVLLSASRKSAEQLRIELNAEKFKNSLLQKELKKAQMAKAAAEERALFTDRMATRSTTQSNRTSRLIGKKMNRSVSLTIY
T1 sequence (P30291 whole entry): as above

By EC50 is commonly meant the concentration that produces a half-maximal response. What is called IC50 is the concentration that inhibits the measured activity by half. On to `C=CCn1c(=O)c2cnc(Nc3ccc4ncccc4c3)nc2n1-c1cccc(OC2CCNCC2)n1` [Compound 242, 2-allyl-1-[6-(4-piperidyloxy)-2-pyridyl]-6-(6-quinolylamino)-1,2-dihydro-3H-1,2,5,7-tetraazainden-3-one], for which the concentration giving a half-maximal response (EC50) lay within 100 to 500 nM in test [1] (setting [5]), 100 to 500 nM in the test with ACHN cells and 500 to 1000 nM in test [2] (setting [6]). Besides, the IC50 is below 10 nM in test [3] (setting [7]) and below 20 nM in test [4] (setting [8]).

Take `C=CCn1c(=O)c2cnc(Nc3ccc(OCC(C)C)cc3)nc2n1-c1cccc(OC2CCN(C)CC2)n1` [Compound 257, 2-allyl-6-((4-isobutoxyphenyl)amino)-1-(6-((1-methylpiperidin-4-yl)oxy)pyridin-2-yl)-1,2-dihydro-3H-pyrazolo[3,4-d]pyrimidin-3-one]: the EC50 in test [1] (setting [5]) is below 100 nM; in the test on ACHN cells, at most 100 nM; in test [2] (setting [6]), 500 to 1000 nM. Further, the concentration for half-maximal inhibition (IC50) in test [3] (setting [7]) was below 10 nM; in test [4] (setting [8]) it was below 20 nM.

Take `C=CCn1c(=O)c2cnc(Nc3cnn(C)c3)nc2n1-c1cccc(O[C@H]2C[C@H]3CC[C@@H](C2)N3C)n1` [Compound 190, 6-[(1-methyl-1H-pyrazol-4-yl)amino]-1-(6-{[(trans)-8-methyl-8-azabicyclo[3.2.1]octan-3-yl]oxy}pyridin-2-yl)-2-(prop-2-en-1-yl)-1H,2H,3H-pyrazolo[3,4-d]pyrimidin-3-one]: the EC50 lay in the range of 100 to 500 nM in test [1] (read-out: CDK1 Tyr15 Phosphorylation EC50, 4 h treatment, nuclear positivity for pCdk1 Y15 vs DMSO control); 100 to 500 nM with ACHN cells; 500 to 1000 nM in test [2] (read-out: CDK1 Thr14 Phosphorylation EC50, 4 h treatment). For the same compound, the IC50 is below 10 nM in test [3] and below 20 nM in test [4] (Myt1 kinase Binding IC50, 3 nM tracer 178, 2.5 nM PMYT-1, 1 nM Eu-labeled antibody).

In the case of `C=CCn1c(=O)c2cnc(Nc3cnn(C(C)C)c3)nc2n1-c1cccc(OC2CCN(C)CC2)n1` [Compound 198, 2-allyl-6-(1-isopropyl-4-pyrazolylamino)-1-[6-(1-methyl-4-piperidyloxy)-2-pyridyl]-1,2-dihydro-3H-1,2,5,7-tetraazainden-3-one], the EC50 is below 100 nM in test [1] (setting [5]), at most 100 nM with ACHN cells and above 1000 nM in test [2] (setting [6]). The values for the IC50 in test [3] (setting [7]) and in test [4] (setting [8]) were below 10 nM and 100 to 500 nM, respectively.

As for `C=CCn1c(=O)c2cnc(Nc3cccnc3)nc2n1-c1cccc(OC2CCN(C)CC2)n1` [Compound 229, 2-allyl-1-[6-(1-methyl-4-piperidyloxy)-2-pyridyl]-6-(3-pyridylamino)-1,2-dihydro-3H-1,2,5,7-tetraazainden-3-one], the half-maximal effective concentration (EC50) in test [1] (setting [5]) was 100 to 500 nM; in the test on ACHN cells, at most 100 nM; in test [2] (setting [6]) it was above 1000 nM. For the same compound, the half-maximal inhibitory concentration (IC50) in test [3] (setting [7]) was below 10 nM; in test [4] (setting [8]), 20 to 100 nM.

For the compound `C=CCn1c(=O)c2cnc(Nc3ccc4nsnc4c3)nc2n1-c1cccc(OC2CCN(C)CC2)n1` [Compound 208, 2-allyl-6-(2,1,3-benzothiadiazol-5-ylamino)-1-[6-(1-methyl-4-piperidyloxy)-2-pyridyl]-1,2-dihydro-3H-1,2,5,7-tetraazainden-3-one], the EC50 in test [1] (setting [5]) was below 100 nM; with ACHN cells, at most 100 nM; in test [2] (setting [6]) it was 200 to 500 nM. For the same compound, the IC50 in test [3] (setting [7]) was below 10 nM; in test [4] (setting [8]) it was below 20 nM.

Turning to `C=CCn1c(=O)c2cnc(Nc3ccc(OCC)cc3)nc2n1-c1cccc(OC2CCNCC2)n1` [Compound 254, 2-allyl-6-((4-ethoxyphenyl)amino)-1-(6-(piperidin-4-yloxy)pyridin-2-yl)-1,2-dihydro-3H-pyrazolo[3,4-d]pyrimidin-3-one], the EC50 in test [1] (setting [5]) is below 100 nM; in the test on ACHN cells, at most 100 nM; in test [2] (setting [6]) it was 500 to 1000 nM. Besides, the IC50 was below 10 nM in test [3] (setting [7]) and 20 to 100 nM in test [4] (setting [8]).

For `C=CCn1c(=O)c2cnc(Nc3cnn(CC(C)C)c3)nc2n1-c1cccc(OC2CCN(C)CC2)n1` [Compound 200, 2-allyl-6-(1-isobutyl-4-pyrazolylamino)-1-[6-(1-methyl-4-piperidyloxy)-2-pyridyl]-1,2-dihydro-3H-1,2,5,7-tetraazainden-3-one], the EC50 in test [1] (setting [5]) was below 100 nM; in the test on ACHN cells, at most 100 nM; in test [2] (setting [6]), above 1000 nM. Also, the 50% inhibitory concentration (IC50) is below 10 nM in test [3] (setting [7]) and 100 to 500 nM in test [4] (setting [8]).

Regarding `C=CCn1c(=O)c2cnc(Nc3ccc4[nH]ncc4c3)nc2n1-c1cccc(OC2CCN(C)CC2)n1` [Compound 238, 6-((1H-indazol-5-yl)amino)-2-allyl-1-(6-((1-methylpiperidin-4-yl)oxy)pyridin-2-yl)-1,2-dihydro-3H-pyrazolo[3,4-d]pyrimidin-3-one], the EC50 was below 100 nM in test [1] (setting [5]), at most 100 nM in the test on ACHN cells and 200 to 500 nM in test [2] (setting [6]). In addition, the 50% inhibitory concentration (IC50) in test [3] (setting [7]) was below 10 nM; in test [4] (setting [8]) it was 20 to 100 nM.

Consider `C=CCn1c(=O)c2cnc(Nc3ccc(OC)nc3)nc2n1-c1cccc(OC2CCN(C)CC2)n1` [Compound 250, 2-allyl-6-(6-methoxy-3-pyridylamino)-1-[6-(1-methyl-4-piperidyloxy)-2-pyridyl]-1,2-dihydro-3H-1,2,5,7-tetraazainden-3-one], for which the concentration giving a half-maximal response (EC50) in test [1] (setting [5]) is below 100 nM; in the test on ACHN cells it was at most 100 nM; in test [2] (setting [6]) it was 200 to 500 nM. Further, the values for the IC50 in test [3] (setting [7]) and in test [4] (setting [8]) were below 10 nM and 20 to 100 nM, respectively.

With `C=CCn1c(=O)c2cnc(Nc3ccc(OCC4CC4)cc3)nc2n1-c1cccc(OC2CCNCC2)n1` [Compound 259, 2-allyl-6-((4-(cyclopropylmethoxy)phenyl)amino)-1-(6-(piperidin-4-yloxy)pyridin-2-yl)-1,2-dihydro-3H-pyrazolo[3,4-d]pyrimidin-3-one], the values for the EC50 (in test [1] (setting [5]); with ACHN cells; in test [2] (setting [6])) were below 100 nM, at most 100 nM and 200 to 500 nM, respectively. In addition, the IC50 is below 10 nM in test [3] (setting [7]) and below 20 nM in test [4] (setting [8]).

On to `C=CCn1c(=O)c2cnc(Nc3ccc4nc(C)sc4c3)nc2n1-c1cccc(OC2CCN(C)CC2)n1` [Compound 260, 2-allyl-6-(2-methyl-1,3-benzothiazol-6-ylamino)-1-[6-(1-methyl-4-piperidyloxy)-2-pyridyl]-1,2-dihydro-3H-1,2,5,7-tetraazainden-3-one], for which the EC50 in test [1] (setting [5]) was below 100 nM; in the test on ACHN cells it was at most 100 nM; in test [2] (setting [6]), 200 to 500 nM. For the same compound, the IC50 in test [3] (setting [7]) is below 10 nM; in test [4] (setting [8]) it was below 20 nM.
